Literature values, collected in US20060128997A1, “New method for the preparation of 1,5-bis(4-hydroxy-3-metoxy-phenyl)-penta-1,4-dien-3-one and derivatives with antitumoral properties” (priority 2003, published 2006).

Assays:
HT-1080 = conditions: literature values (Banskota, Kimoto); unit not given; cited from earlier work
Colon L5-26 = conditions: literature values (Banskota, Kimoto); unit not given; cited from earlier work

Structure (SMILES) | Cytotoxicity HT-1080 (HT-1080) | Cytotoxicity Colon L5-26 (Colon L5-26)
CC(C)=CCc1cc(C=CC(=O)O)cc2c1OC(C)(C)C(O)C2 (centres unmarked) [Compound 1, 3-hydroxy-2,2-dimethyl-8-prenylchromane-6-propenoic acid] | 71.53 | 77.07
CC(C)=CCc1cc(C=CC(=O)O)cc2c1OC(C)(C)C=C2 [Compound 2, 2,2-dimethyl-8-prenyl-2H-1-benzopyranbenzopyrene-6-yl-2-propenoic acid] | 46.86 | 50.22
CC(C)=CCc1cc(C=CC(=O)O)cc(CC=C(C)C)c1O [Compound 3, 3,5-diprenyl-4-hydroxycinnamic acid] | 45.47 | 59.32
CC(C)=CCc1cc(C=CC(=O)O)ccc1OC(=O)CCc1ccccc1 [Compound 4, 4-dihydrocinnamoyloxy-3-prenylcinnamic acid] | 25.94 | 77.90
